Test results reported in patent US10906864B2, “Nitroalkene non steroidal anti-inflammatory drugs (NA-NSAIDS) and methods of treating inflammation related conditions” (Institut Pasteur de Montevideo, priority 2017, dated 2021).

Tests used:
[1] = test system: in vivo model of peritonitis; test: In vivo model of peritonitis (LPS-induced inflammatory response), IL-1β by ELISA; parameters: species or system Mice
Experimental: Mice were treated with BANA, Benzoic Acid (50 mg/kg, IP) or the vehicle (100 mM Phosphate buffer 10% DMSO) for 1 hour. Then were injected with LPS (10 mg/kg, IP) or PBS for 2 hours. Mice were collected for peritoneal wash and blood samples were extracted. The peritoneal wash and plasma were stored to measure IL-1β by ELISA. The values are show as mean±SD from three mice per condition and we have used the statistic test one-way ANOVA with Bonferroni.

[2] = test system: NF-κB and inflammasome function in macrophages (THP-1 cells); test: IL-1β secretion by ELISA in PMA-differentiated THP-1 macrophages stimulated with LPS and ATP; format: cell-based
Experimental: In order to compare benzoic acid (BA) and nitroalkene benzoic acid (BANA) over NF-κB and inflammasome function in macrophages, THP-1 cells were differentiated into macrophages with PMA (200 nM, 48 h). Cells were then stimulated with LPS (250 ng/mL) and with ATP (5 mM, 45 minutes). Together with LPS (1st signal, FIG. 6) or ATP (2nd signal, FIG. 7), cells were treated with Benzoic acid (30 μM) or BANA (30 μM). Supernatants were collected and IL-1β secretion was measured by ELISA. […] Thus, BANA inhibits both the generation of the inflammasome, and inhibits the inflammasome itself. Further exemplary studies were performed with Flufenamate (FluFE) and nitroalkene flufenamate (FluFENA). In order to study the effect of Flufenamate (FluFE) and FluFENA over NF-κB and inflammasome function in macrophages, THP-1 cells were differentiated into macrophages with PMA (200 nM, 48 h). Cells were stimulated with LPS (250 ng/mL) and then with ATP (5 mM, 45 minutes). […] Cells were stimulated with LPS (250 ng/mL) and then with ATP (5 mM, 45 minutes). Together with LPS (1st signal, FIG. 10) or ATP (2nd signal, FIG. 11), cells were treated with Ibuprofen (20 μM) or IBUNA ([…] were collected and IL-1β secretion was measured by ELISA.

[3] = mice, 50 mg/kg IP 1 hour before LPS 10 mg/kg IP for 2 hours, as opposed to BA

For O=C(O)c1ccc(/C=C/[N+](=O)[O-])cc1 [BANA, (E)-4-(2-nitrovinyl)benzoic acid], the “IL-1β release in LPS-induced inflammatory response (FIG. 12 legend)” value ([1]; in vivo) was “in vivo inhibition of IL-1β release”, the “level of IL-1β in blood plasma” value [1, 3] was “marked decrease” and the “level of IL-1β in peritoneal wash” value [1, 3] was “marked decrease”. The “IL-1β secretion, treatment together with LPS (1st signal)” value ([2]; 30 μM, LPS 250 ng/mL then ATP 5 mM 45 minutes, FIG. 6) was “inhibition of IL-1β secretion in cells stimulated by LPS” and the “IL-1β secretion, treatment together with ATP (2nd signal)” value ([2]; 30 μM, LPS 250 ng/mL then ATP 5 mM 45 minutes, FIG. 7) was “inhibition of IL-1β secretion in cells stimulated by ATP”.

In the case of O=C(O)c1cc(/C=C/[N+](=O)[O-])ccc1Nc1cccc(C(F)(F)F)c1 [FluFENA, (E)-5-(2-nitrovinyl)-2-((3-(trifluoromethyl)phenyl)amino)benzoic acid], the “IL-1β secretion, treatment together with LPS (1st signal) or ATP (2nd signal), versus Flufenamate (FluFE)” value ([2]; FluFE (5 μM) or FluFENA (5), FIG. 8 and FIG. 9) is reported as “unexpected advantage”.

With CC(C)Cc1ccc(C(C)C(=O)O)cc1/C=C/[N+](=O)[O-] (stereo not shown) [IBUNA, (E)-2-(4-isobutyl-3-(2-nitrovinyl)phenyl)propanoic acid] the “IL-1β secretion, treatment together with LPS (1st signal) or ATP (2nd signal), versus Ibuprofen” value ([2]; Ibuprofen (20 μM) or IBUNA (20), FIG. 10 and FIG. 11) was “unexpected superiority”.
